Blank lines part the entries; values can stand above or below the molecule they belong to.
Key:
[1] = molecular target: 5-hydroxytryptamine receptor 2A (Homo sapiens) (UniProt P28223); test: h5HT2A Cerep panel
[2] = molecular target: Type-1 angiotensin II receptor (Homo sapiens) (UniProt P30556); test: hAT1 Cerep panel
[3] = molecular target: C-C chemokine receptor type 1 (Homo sapiens) (UniProt P32246); test: hCCR1 Cerep panel
[4] = molecular target: Voltage-gated inwardly rectifying potassium channel KCNH2 (Homo sapiens, UniProt Q12809); test: hERG Cerep panel
Voltage-gated inwardly rectifying potassium channel KCNH2, sequence (Q12809 whole entry): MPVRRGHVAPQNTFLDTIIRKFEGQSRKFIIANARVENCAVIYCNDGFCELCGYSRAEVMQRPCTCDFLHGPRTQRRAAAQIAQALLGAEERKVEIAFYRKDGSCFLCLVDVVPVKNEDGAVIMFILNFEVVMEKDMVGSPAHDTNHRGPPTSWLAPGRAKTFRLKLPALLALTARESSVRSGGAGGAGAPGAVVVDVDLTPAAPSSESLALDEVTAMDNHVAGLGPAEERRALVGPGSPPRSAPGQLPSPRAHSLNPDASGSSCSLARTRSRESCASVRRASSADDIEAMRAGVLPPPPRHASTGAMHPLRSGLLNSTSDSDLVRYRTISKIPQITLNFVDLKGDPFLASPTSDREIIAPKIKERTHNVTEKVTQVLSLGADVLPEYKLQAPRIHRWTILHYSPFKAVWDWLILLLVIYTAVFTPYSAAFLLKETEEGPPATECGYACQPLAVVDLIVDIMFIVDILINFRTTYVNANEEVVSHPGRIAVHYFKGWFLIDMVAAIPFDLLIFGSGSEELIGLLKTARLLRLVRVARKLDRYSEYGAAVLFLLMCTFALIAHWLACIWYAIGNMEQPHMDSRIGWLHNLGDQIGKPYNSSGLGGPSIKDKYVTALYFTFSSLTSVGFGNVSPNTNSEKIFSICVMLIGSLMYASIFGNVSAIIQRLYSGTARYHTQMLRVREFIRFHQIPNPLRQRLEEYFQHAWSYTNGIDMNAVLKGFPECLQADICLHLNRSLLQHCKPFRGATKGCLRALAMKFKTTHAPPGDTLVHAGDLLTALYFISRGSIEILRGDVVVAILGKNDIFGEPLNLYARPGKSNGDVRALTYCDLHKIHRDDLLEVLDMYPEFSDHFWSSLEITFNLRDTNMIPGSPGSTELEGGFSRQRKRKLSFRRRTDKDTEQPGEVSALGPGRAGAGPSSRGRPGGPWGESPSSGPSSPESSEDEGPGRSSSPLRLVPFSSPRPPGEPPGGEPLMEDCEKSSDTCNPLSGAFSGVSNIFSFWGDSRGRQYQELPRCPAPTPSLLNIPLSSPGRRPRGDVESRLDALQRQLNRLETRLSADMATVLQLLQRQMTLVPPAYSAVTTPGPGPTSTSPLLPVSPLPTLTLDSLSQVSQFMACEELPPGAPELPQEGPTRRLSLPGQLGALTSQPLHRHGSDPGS

[5] = molecular target: Melanocortin receptor 4 (Homo sapiens) (UniProt P32245); test: hMC4 Cerep panel
[6] = molecular target: Neuropeptide Y receptor type 1 (Homo sapiens) (UniProt P25929); test: hNPY1 Cerep panel
[7] = molecular target: Vasoactive intestinal polypeptide receptor 1 (Homo sapiens) (UniProt P32241); test: hVPAC1 Cerep panel
[8] = molecular target: 5-hydroxytryptamine receptor 1B (Rattus norvegicus) (UniProt P28564); test: r5HT1B Cerep panel
Rattus norvegicus [9] = organism: Rattus norvegicus; test: rCaCH (nitrendipine) Cerep panel
[10] = molecular target: Kappa-type opioid receptor (Rattus norvegicus) (UniProt P34975); test: rOP2 Cerep panel
[11] = molecular target: Adenosine receptor A3 (Homo sapiens) (UniProt P0DMS8); test: hA3 Cerep panel
[12] = molecular target: Alpha-1A adrenergic receptor (Rattus norvegicus) (UniProt P43140); test: rAa1 Cerep panel
[13] = molecular target: T1, Alpha-1B adrenergic receptor (Homo sapiens) (UniProt P35368); test: hAb1 Cerep panel
T1 sequence (whole entry): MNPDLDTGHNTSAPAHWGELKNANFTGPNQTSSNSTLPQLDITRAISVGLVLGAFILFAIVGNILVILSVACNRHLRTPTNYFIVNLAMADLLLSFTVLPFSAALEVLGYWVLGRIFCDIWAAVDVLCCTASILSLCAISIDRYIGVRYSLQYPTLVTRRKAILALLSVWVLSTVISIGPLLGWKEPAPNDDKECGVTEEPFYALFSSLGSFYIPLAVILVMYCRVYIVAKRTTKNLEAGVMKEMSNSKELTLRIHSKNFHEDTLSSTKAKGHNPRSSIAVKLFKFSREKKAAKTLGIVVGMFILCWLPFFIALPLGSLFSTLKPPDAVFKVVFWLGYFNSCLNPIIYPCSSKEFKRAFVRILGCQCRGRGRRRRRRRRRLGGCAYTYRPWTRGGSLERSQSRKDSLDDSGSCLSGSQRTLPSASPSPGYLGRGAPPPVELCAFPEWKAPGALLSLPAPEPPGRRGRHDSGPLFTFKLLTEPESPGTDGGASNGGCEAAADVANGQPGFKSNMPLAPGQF

[14] = molecular target: B2 bradykinin receptor (Homo sapiens) (UniProt P30411); test: hBK2 Cerep panel
B2 bradykinin receptor (Homo sapiens), sequence (P30411 whole entry): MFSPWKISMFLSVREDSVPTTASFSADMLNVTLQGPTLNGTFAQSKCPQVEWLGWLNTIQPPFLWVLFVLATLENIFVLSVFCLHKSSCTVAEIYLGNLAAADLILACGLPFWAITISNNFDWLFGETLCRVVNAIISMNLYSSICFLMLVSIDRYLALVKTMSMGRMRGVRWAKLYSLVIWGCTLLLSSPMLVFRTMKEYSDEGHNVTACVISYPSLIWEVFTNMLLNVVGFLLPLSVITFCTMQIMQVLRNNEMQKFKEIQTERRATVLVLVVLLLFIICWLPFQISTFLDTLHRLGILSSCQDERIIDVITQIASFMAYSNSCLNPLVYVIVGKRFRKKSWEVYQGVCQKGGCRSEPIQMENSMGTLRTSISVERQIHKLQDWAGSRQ

[15] = molecular target: Endothelin-1 receptor (Homo sapiens) (UniProt P25101); test: hETA Cerep panel
Rattus norvegicus [16] = organism: Rattus norvegicus; test: rGABA Cerep panel
[17] = molecular target: T2, Muscarinic acetylcholine receptor M2 (Homo sapiens) (UniProt P08172); test: hM2 Cerep panel
T2 sequence (whole entry): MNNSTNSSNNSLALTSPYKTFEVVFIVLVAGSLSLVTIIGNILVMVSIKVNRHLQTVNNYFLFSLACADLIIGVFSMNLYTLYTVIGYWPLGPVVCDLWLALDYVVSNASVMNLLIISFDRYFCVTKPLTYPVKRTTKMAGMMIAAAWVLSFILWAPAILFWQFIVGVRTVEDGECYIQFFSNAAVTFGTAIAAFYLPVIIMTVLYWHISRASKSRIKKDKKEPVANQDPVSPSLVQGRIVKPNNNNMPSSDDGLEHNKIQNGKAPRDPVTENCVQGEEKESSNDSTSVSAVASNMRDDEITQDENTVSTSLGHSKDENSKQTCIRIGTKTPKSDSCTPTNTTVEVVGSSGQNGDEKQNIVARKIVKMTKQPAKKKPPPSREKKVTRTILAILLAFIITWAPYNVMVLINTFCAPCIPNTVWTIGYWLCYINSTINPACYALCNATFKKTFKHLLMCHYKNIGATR

[18] = molecular target: Muscarinic acetylcholine receptor M3 (Homo sapiens) (UniProt P20309); test: hM3 Cerep panel
Muscarinic acetylcholine receptor M3 (Homo sapiens), sequence (P20309 whole entry, looked up): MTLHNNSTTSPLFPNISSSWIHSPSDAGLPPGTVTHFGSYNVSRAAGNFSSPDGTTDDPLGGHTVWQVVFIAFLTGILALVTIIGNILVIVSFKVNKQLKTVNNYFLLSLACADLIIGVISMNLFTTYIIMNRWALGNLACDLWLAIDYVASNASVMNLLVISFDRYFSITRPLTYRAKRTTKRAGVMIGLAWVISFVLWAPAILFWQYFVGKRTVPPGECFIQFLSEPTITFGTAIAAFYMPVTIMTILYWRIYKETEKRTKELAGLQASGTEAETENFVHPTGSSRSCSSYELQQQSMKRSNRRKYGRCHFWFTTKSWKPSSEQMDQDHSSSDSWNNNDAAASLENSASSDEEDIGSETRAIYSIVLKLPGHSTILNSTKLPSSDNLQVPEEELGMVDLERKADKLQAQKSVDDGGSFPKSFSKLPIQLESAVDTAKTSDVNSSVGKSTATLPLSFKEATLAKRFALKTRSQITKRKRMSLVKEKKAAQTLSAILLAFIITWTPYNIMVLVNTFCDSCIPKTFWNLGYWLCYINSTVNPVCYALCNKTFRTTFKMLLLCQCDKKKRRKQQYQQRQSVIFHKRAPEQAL

[19] = molecular target: Substance-K receptor (Homo sapiens) (UniProt P21452); test: hNK2 Cerep panel
[20] = molecular target: Neurotensin receptor type 1 (Homo sapiens) (UniProt P30989); test: hNT1 Cerep panel
[21] = molecular target: T3, 5-hydroxytryptamine receptor 1A (Homo sapiens) (UniProt P08908); test: h5HT1A Cerep panel
T3 sequence (whole entry): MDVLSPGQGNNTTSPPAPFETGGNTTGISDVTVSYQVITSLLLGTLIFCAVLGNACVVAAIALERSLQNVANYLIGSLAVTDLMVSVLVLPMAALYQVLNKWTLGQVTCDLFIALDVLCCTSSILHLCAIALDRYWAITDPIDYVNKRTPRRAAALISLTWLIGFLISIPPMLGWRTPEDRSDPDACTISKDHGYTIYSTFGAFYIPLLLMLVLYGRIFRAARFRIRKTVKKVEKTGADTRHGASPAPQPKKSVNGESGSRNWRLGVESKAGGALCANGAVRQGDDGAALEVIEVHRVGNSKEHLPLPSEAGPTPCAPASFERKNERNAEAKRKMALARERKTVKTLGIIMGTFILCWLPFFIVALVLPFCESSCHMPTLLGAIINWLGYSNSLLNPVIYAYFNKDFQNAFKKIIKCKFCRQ

[22] = molecular target: 5-hydroxytryptamine receptor 7 (Homo sapiens) (UniProt P34969); test: h5HT7 Cerep panel
Rattus norvegicus [23] = organism: Rattus norvegicus; test: rCLCH Cerep panel
[24] = molecular target: Sodium-dependent serotonin transporter (Homo sapiens, UniProt P31645); test: h5HTT Cerep panel
[25] = molecular target: Histamine H1 receptor (Homo sapiens) (UniProt P35367); test: hH1 Cerep panel
Histamine H1 receptor (Homo sapiens), sequence (P35367 whole entry): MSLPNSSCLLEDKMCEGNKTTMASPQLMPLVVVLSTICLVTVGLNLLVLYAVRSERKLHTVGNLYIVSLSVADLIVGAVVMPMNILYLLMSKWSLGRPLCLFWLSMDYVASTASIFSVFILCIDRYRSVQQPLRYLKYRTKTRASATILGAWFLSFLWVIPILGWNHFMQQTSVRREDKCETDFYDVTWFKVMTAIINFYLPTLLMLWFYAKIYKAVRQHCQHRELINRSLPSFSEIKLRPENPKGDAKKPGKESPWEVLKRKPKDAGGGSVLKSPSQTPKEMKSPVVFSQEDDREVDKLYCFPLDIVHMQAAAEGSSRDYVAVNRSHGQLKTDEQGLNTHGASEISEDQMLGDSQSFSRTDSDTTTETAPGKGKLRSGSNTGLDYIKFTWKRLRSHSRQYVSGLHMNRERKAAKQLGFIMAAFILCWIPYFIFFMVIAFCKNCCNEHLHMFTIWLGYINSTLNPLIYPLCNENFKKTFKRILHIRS

[26] = molecular target: Histamine H2 receptor (Homo sapiens) (UniProt P25021); test: hH2 Cerep panel
[27] = molecular target: 5-hydroxytryptamine receptor 2B (Homo sapiens) (UniProt P41595); test: h5HT2B Cerep panel
[28] = molecular target: D(3) dopamine receptor (Homo sapiens) (UniProt P35462); settings: Compound concentration 10.0 uM
[29] = molecular target: D(1B) dopamine receptor (Homo sapiens) (UniProt P21918); settings: Compound concentration 10.0 uM
D(1B) dopamine receptor (Homo sapiens), sequence (P21918 whole entry): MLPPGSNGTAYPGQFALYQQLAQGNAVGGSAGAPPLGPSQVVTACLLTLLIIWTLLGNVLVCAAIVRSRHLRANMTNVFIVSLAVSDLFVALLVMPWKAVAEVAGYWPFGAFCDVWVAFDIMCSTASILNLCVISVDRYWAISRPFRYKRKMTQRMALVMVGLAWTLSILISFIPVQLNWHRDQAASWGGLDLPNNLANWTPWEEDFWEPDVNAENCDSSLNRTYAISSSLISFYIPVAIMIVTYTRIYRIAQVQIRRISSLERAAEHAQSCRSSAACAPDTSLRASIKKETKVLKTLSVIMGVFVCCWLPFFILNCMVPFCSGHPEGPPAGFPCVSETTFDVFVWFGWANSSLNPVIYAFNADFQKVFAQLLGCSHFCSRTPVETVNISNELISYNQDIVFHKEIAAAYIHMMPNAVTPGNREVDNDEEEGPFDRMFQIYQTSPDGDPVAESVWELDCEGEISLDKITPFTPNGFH

[30] = molecular target: Alpha-2B adrenergic receptor (Homo sapiens, UniProt P18089); test: GPCRScan assay: inhibition of Alpha2B; design: radioligand conc. used [nm] 1.5 – 2.0, parental cells HEKT
Alpha-2B adrenergic receptor, sequence (P18089 whole entry): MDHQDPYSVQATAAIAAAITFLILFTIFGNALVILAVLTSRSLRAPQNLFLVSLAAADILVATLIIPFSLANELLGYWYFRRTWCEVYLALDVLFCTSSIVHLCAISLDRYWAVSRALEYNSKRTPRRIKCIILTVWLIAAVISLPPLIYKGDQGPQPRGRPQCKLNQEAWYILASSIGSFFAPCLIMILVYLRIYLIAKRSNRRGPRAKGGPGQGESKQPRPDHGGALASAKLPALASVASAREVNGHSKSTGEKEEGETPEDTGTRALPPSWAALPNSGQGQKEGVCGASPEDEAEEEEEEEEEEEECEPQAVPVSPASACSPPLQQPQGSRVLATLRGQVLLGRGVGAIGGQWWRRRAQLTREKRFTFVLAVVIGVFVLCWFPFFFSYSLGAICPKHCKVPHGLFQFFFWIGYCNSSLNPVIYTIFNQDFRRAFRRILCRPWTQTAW

[31] = molecular target: D(1A) dopamine receptor (Homo sapiens) (UniProt P21728); settings: Compound concentration 10.0 uM
D(1A) dopamine receptor (Homo sapiens), sequence (P21728 whole entry): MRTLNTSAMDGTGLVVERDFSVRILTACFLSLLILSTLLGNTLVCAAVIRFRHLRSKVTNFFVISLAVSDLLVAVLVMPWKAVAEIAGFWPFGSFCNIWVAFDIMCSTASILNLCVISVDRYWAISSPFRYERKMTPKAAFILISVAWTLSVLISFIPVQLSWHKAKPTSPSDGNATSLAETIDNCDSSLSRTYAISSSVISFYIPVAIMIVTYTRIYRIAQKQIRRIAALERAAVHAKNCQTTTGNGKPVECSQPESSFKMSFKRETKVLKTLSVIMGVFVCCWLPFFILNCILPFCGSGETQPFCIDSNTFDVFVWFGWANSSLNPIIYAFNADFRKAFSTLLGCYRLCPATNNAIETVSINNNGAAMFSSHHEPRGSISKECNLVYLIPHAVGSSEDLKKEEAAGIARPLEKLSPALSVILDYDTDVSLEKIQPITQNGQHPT

C-C chemokine receptor type 1 (Homo sapiens), sequence (P32246 whole entry): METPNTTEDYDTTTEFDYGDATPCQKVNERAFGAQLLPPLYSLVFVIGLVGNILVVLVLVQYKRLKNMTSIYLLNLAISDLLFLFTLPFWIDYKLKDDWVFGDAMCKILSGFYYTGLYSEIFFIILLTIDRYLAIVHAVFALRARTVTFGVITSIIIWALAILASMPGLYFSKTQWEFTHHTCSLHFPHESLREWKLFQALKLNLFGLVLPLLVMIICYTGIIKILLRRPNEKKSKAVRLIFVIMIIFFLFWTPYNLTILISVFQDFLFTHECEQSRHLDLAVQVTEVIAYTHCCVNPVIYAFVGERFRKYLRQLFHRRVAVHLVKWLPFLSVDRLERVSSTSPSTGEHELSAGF
5-hydroxytryptamine receptor 2A (Homo sapiens), sequence (P28223 whole entry): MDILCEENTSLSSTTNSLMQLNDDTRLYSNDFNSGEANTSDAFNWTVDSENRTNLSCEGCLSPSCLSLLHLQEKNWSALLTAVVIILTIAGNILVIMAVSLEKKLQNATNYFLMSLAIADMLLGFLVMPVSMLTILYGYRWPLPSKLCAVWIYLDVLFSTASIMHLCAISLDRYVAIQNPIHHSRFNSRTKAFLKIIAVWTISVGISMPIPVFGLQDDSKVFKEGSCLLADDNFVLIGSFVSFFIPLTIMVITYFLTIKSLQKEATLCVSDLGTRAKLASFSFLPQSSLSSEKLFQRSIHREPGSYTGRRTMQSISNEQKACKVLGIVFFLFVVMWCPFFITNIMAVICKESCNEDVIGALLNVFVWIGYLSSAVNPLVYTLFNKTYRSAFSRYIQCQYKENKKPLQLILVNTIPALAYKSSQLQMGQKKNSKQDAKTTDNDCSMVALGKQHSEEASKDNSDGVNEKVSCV

effect [1]: 4.1% | effect [2]: -3.05% | effect [3]: -1.85% | effect [5]: 1.3% | effect [6]: -7.35% | effect [7]: -10.1% | effect [8]: -9.65% | effect (Rattus norvegicus [9]): 14% | effect [10]: 77.8% | effect [11]: 16% | effect [12]: 19.5% | effect [13]: 11.2% | effect [14]: 10.8% | effect [15]: 3.6% | effect (Rattus norvegicus [16]): -9.8% | effect [17]: 25.4% | effect [18]: 45.5% | effect [19]: 4.5% | effect [20]: 4.15% | effect [21]: 9.45% | effect [22]: -1.65% | effect (Rattus norvegicus [23]): -5.7% | effect [24]: -7.05% | effect [25]: 5.7% | effect [26]: 11.4% | effect [27]: 6.3% | inhibition [28]: 10.3% | inhibition [29]: 7.69%
Structure (SMILES): CC(=O)Nc1ncc(CN2CCC[C@H](Cc3cc(C)nc(C)c3)C2)s1 [JNJ-65355394]
effect [4]: 10%

Ki ([30]; read-out: Ki): 3.69 µM | Ki ([30]; read-out: pKi (converted)): 3.67 µM | inhibition [31]: 10.7%
Structure (SMILES): CC(=O)Nc1nc(CN2CCC[C@H](Cc3cc(C)nc(C)c3)C2)cs1 [JNJ-73924149]
